Laboratory results: US11685716B2, “Plant growth inhibiting agent, and plant growth inhibiting method using same” (NATIONAL UNIVERSITY CORPORATION KUMAMOTO UNIVERSITY, priority 2017, dated 2023)

Assays:
velvet leaf [1] = test: Spray treatment to stems and leaves, killing weed index (Evaluation 10); type: in vivo; settings: 2000 g active ingredient per hectare, two weeks later
Method: (§1) POA allyl phenyl ether (4.1 parts by weight), POE-POP glycol (1 part by weight), POE sorbitan laurate (0.8 parts by weight), glycerin (2.6 parts by weight), dimethylformamide (65.9 parts by weight), N-methylpyrrolidone (5.1 parts by weight), cyclohexanone (15.4 parts by weight), and aromatic hydrocarbon (5.1 parts by weight) were mixed and dissolved to prepare an emulsion. The compounds of the present invention (4 mg) were dissolved in this emulsion (100 μL) to prepare a test emulsion. In addition, POA means “polyoxyalkylene”, POE means “polyoxyethylene”, and POP means “polyoxypropylene.”
(§2) Four hundred μL of the above test emulsion was diluted with 7600 μL of water to use as a test spray liquid.
(§3) Further, 400 μL of the above test emulsion was diluted with 1600 μL of a 1% Tween20 aqueous solution to use as a spray liquid for a small amount spray test.
(§4) For a comparative spray liquid, 53 μL of a 30% pendimethalin emulsion (Gogosan emulsion: manufactured by BASF Japan) as a control pesticides was diluted with 7947 μL of water. Further, for a comparative spray liquid for a small amount spray test, 53 μL of the 30% pendimethalin emulsion was diluted with 1947 μL of water.
(§5) A 150 cm^2 pot was filled with a soil, seeds of each purple amaranth, Japanese bristlegrass, southern crabgrass, and velvet leaf were sown on the surface layer, lightly covered with a soil and grown in a greenhouse. When each plant grew to a plant height of 2 to 9 cm, the test spray liquid was sprayed to the stem and leaf parts with a small spraying machine such that an active ingredient amount was 2000 g per hectare and a sprayed liquid amount was 1000 L per hectare.
(§6) Similarly, the test spray liquid for a small amount spray test was sprayed to the stem and leaf parts with a small spraying machine such that an active ingredient amount was 2000 g per hectare and a sprayed liquid amount was 250 L per hectare.
(§7) Two weeks later, the above-ground grass weight in non-treated areas and the above-ground grass weight in treated areas, by the weed, were measured to calculate a killing weed rate by the following calculating formula.
(§8) (a) Calculating Formula of Weeding Rate Killing weed rate (%)=(above-ground grass weight in non-treated area−above-ground grass weight in treated area)/(above-ground grass weight in non-treated area)×100 (b) Killing Weed Indexes
(§9) The obtained killing weed rates were evaluated, such that a killing weed index was “10” when a killing weed rate is 100%, as “9” when a killing weed rate is 99% to 90%, “8” when a killing weed rate is 89% to 80%, “7” when a killing weed rate is 79% to 70%, “6” when a killing weed rate is 69% to 60%, “5” when a killing weed rate is 59% to 50%, “4” when a killing weed rate is 49% to 40%, “3” when a killing weed rate is 39% to 30%, “2” when a killing weed rate is 29% to 20%, “1” when a killing weed rate is 19% to 10%, and “0” when a killing weed rate is 9% to 0%.

southern crabgrass = test: as above; type: in vivo; settings: 2000 g active ingredient per hectare, two weeks later
Method: as §1, §2, §3, §4, §5, §6, §7, §8, §9

Japanese bristlegrass = test: as above; type: in vivo; settings: 2000 g active ingredient per hectare, two weeks later
Method: as §1, §2, §3, §4, §5, §6, §7, §8, §9

purple amaranth = test: as above; type: in vivo; settings: 2000 g active ingredient per hectare, two weeks later
Method: as §1, §2, §3, §4, §5, §6, §7, §8, §9

thale cress = test: Plant growth inhibition index, thale cress on agar medium in test tube (Evaluation 8, 9); type: in vivo, thale cress (Col-0, wild-type strain); design: key: 0: No effect; 1: Growth of the root part was inhibited 50% or less compared with non-treated area.; 2: Growth of the root part was inhibited 50% or more compared with non-treated area.; 3: Growth of the root part was substantially inhibited.; 4: Germination was inhibited; settings: for Index: Concentration 200 μM, 8 days (Evaluation 9, Table 2)
Method: 0.44% (w/v) Mixed salts for Murashige and Skoog medium (SIGMA), 1% (w/v) sucrose, and 0.05% (w/v) MES were mixed, and pH of the solution was adjusted to pH 5.7 with potassium hydroxide. 1.5% (w/v) Agar was added to the mixture, which was sterilized at 120° C. in an autoclave for 20 minutes. The test compound and dimethylformamide containing 1.5% of polyoxyethylenesorbitan monolaurate for a control experiment, were added at this stage and blended. In addition, the compound was used by adjusting an addition concentration to 200 μM. Four ml each of the medium was dispensed in sterile glass test tube ([…] RIKA GLASS CO., LTD.) to prepare agar medium.
As a plant material, Col-0, which is a wild-type strain of thale cress, was used.
Seeds, after their surfaces were sterilized, were planted on the agar medium, and the growth of the plant was carried out in a plant incubator (CFH-405) under the conditions of an illuminance of 3 at 23° C. with constant light. The plants on the agar medium were grown for 8 days in the chamber.
The plant growth inhibition effect of the compounds was evaluated by conversion to indexes according to the following investigation criteria.

velvet leaf [2] = test: Seed treatment, plant growth inhibition index (Evaluation 11); type: in vivo; design: key: 0: No effect; 1: Growth of the root part was inhibited 50% or less compared with non-treated area.; 2: Growth of the root part was inhibited 50% or more compared with non-treated area.; 3: Growth of the root part was substantially inhibited.; 4: Germination was inhibited
Method: (§10) The compound of the present invention (2 mg) was dissolved in a 1.5% Tween dimethylformamide solution (100 μL) to use as a test chemical solution.
(§11) Eight mL of sterilized water was poured to a cherry cup (100Φ×45 mm) lined with a filter paper, subsequently 81.1 μL of the sterilized water was removed, and 81.1 μL of the test chemical solution was added such that a final concentration of the compound was 800 μM.
(§12) Further, cherry cups were similarly prepared such that a final concentration of the compound was 200 μM.
(§13) Seeds (Japanese millet: 3 grains, velvet leaf: 6 grains, Ragweed: 8 grains, morning glory: 2 grains) were planted on the filter paper in the cherry cups, followed by growing the plants in a thermostatic chamber at 25° C. under a light-dark cycle in which a light period is 12 hours and a dark period is 12 hours for 6 days.
(§14) In addition, with regards to the compound (9a) and the compound (9b), the plants were tested for 7 days.
(§15) Plant growth inhibition effects of the compounds were evaluated by conversion to indexes according to the following investigation criteria.

morning glory = test: as above; type: in vivo; design: key: 0: No effect; 1: Growth of the root part was inhibited 50% or less compared with non-treated area.; 2: Growth of the root part was inhibited 50% or more compared with non-treated area.; 3: Growth of the root part was substantially inhibited.; 4: Germination was inhibited
Method: as §10, §11, §12, §13, §14, §15

Ragweed = test: as above; type: in vivo; design: key: 0: No effect; 1: Growth of the root part was inhibited 50% or less compared with non-treated area.; 2: Growth of the root part was inhibited 50% or more compared with non-treated area.; 3: Growth of the root part was substantially inhibited.; 4: Germination was inhibited
Method: as §10, §11, §12, §13, §14, §15

Japanese millet = test: as above; type: in vivo; design: key: 0: No effect; 1: Growth of the root part was inhibited 50% or less compared with non-treated area.; 2: Growth of the root part was inhibited 50% or more compared with non-treated area.; 3: Growth of the root part was substantially inhibited.; 4: Germination was inhibited
Method: as §10, §11, §12, §13, §14, §15

[3] = sprayed liquid amount 1000 L/ha
[4] = 200 μM, 6 days (9a, 9b: 7 days)

| SMILES | killing weed index, Velvet leaf (velvet leaf [1]; sprayed liquid amount 250 L/ha) | killing weed index, Velvet leaf (velvet leaf [1]; [3]) | killing weed index, Southern crabgrass (southern crabgrass; sprayed liquid amount 250 L/ha) | killing weed index, Southern crabgrass (southern crabgrass; [3]) | killing weed index, Japanese bristlegrass (Japanese bristlegrass; sprayed liquid amount 250 L/ha) | killing weed index, Japanese bristlegrass (Japanese bristlegrass; [3]) | killing weed index, Purple amaranth (purple amaranth; sprayed liquid amount 250 L/ha) | killing weed index, Purple amaranth (purple amaranth; [3]) | index on the plant growth inhibition effect (thale cress; 200 μM, 8 days (Evaluation 8)) | Index (thale cress) | plant growth inhibition index, Velvet leaf (velvet leaf [2]; [4]) | plant growth inhibition index, Velvet leaf (velvet leaf [2]; 800 μM, 6 days) | plant growth inhibition index, Morning glory (morning glory; [4]) | plant growth inhibition index, Morning glory (morning glory; 800 μM, 6 days) | plant growth inhibition index, Ragweed (Ragweed; [4]) | plant growth inhibition index, Ragweed (Ragweed; 800 μM, 6 days) | plant growth inhibition index, Japanese millet (Japanese millet; [4]) | plant growth inhibition index, Japanese millet (Japanese millet; 800 μM, 6 days) |
| --- | --- | --- | --- | --- | --- | --- | --- | --- | --- | --- | --- | --- | --- | --- | --- | --- | --- | --- |
| O=C(O)c1cccn1OCCCC(F)(F)F [Compound 8i] | 0 (“0” when a killing weed rate is 9% to 0%) | 0 (“0” when a killing weed rate is 9% to 0%) | 2 (“2” when a killing weed rate is 29% to 20%) | 2 (“2” when a killing weed rate is 29% to 20%) | 1 (“1” when a killing weed rate is 19% to 10%) | 3 (“3” when a killing weed rate is 39% to 30%) | 0 (“0” when a killing weed rate is 9% to 0%) | 0 (“0” when a killing weed rate is 9% to 0%) | 2 (Growth of the root part was inhibited 50% or more compared with non-treated area.) | – | – | – | – | – | – | – | – | – |
| CCCCCCCCCOn1cc(C)cc1C(=O)O [Compound 9c] | 5 (“5” when a killing weed rate is 59% to 50%) | 0 (“0” when a killing weed rate is 9% to 0%) | 3 (“3” when a killing weed rate is 39% to 30%) | 5 (“5” when a killing weed rate is 59% to 50%) | 2 (“2” when a killing weed rate is 29% to 20%) | 3 (“3” when a killing weed rate is 39% to 30%) | 1 (“1” when a killing weed rate is 19% to 10%) | 0 (“0” when a killing weed rate is 9% to 0%) | – | 3 | – | – | – | – | – | – | – | – |
| CCCCCOn1cc(-c2cccnc2)cc1C(=O)O [Compound 9i] | – | – | – | – | – | – | – | – | – | 2 (Growth of the root part was inhibited 50% or more compared with non-treated area.) | 0 | 6 (Growth of the stem and leave parts was inhibited 60% or more compared with non-treated area.) | 0 | 10 | 0 | 4 (Growth of the stem and leave parts was inhibited 40% or more compared with non-treated area, or growth of the only root part was inhibited 80% or more compared with non-treated area.) | 3 (Growth of the stem and leave parts was inhibited 30% or more compared with non-treated area, or growth of the only root part was inhibited 60% or more compared with non-treated area.) | 4 (Growth of the stem and leave parts was inhibited 40% or more compared with non-treated area, or growth of the only root part was inhibited 80% or more compared with non-treated area.) |
| CCCCCOn1cc(-c2ccsc2)cc1C(=O)O [Compound 9j] | – | – | – | – | – | – | – | – | – | 2 (Growth of the root part was inhibited 50% or more compared with non-treated area.) | 0 | 5 (Growth of the stem and leave parts was inhibited 50% or more compared with non-treated area, or growth of the only root part was inhibited 100% or more compared with non-treated area.) | 3 (Growth of the stem and leave parts was inhibited 30% or more compared with non-treated area, or growth of the only root part was inhibited 60% or more compared with non-treated area.) | 5 (Growth of the stem and leave parts was inhibited 50% or more compared with non-treated area, or growth of the only root part was inhibited 100% or more compared with non-treated area.) | 8 (Growth of the stem and leave parts was inhibited 80% or more compared with non-treated area.) | 9 (Growth of the stem and leave parts was inhibited 90% or more compared with non-treated area.) | 4 (Growth of the stem and leave parts was inhibited 40% or more compared with non-treated area, or growth of the only root part was inhibited 80% or more compared with non-treated area.) | 3 (Growth of the stem and leave parts was inhibited 30% or more compared with non-treated area, or growth of the only root part was inhibited 60% or more compared with non-treated area.) |
